Assay results from patent US9636335B2, “Heteroaryl compounds as 5-HT4 receptor ligands” (Suven Life Sciences Ltd, priority 2011, dated 2017).
Structures can show the parent of a compound that is named as a salt.

Tests used:
Male Wister rats = assay: Object recognition task model; type: in vivo; conditions: p.o., rat
Description: The cognition enhancing properties of compounds of this invention were estimated by using this model.
Male Wister rats (230-280 grams) were used as experimental animals. Four animals were housed in each cage. […] Also the rats were habituated to individual arenas for 1 hour in the absence of any objects.
One group of 12 rats received vehicle (1 mL/Kg) orally and another set of animals received compound of the formula (I) either orally or i.p., before one hour of the familiar (T1) and choice trial (T2).
The experiment was carried out in a 50×50×50 cm open field made up of acrylic. In the familiarization phase, (T1), the rats were placed individually in the open field for 3 minutes, in which two identical objects (plastic bottles, 12.5 cm height×5.5 cm diameter) covered in yellow masking tape alone (a1 and a2) were positioned in two adjacent corners, 10 cms from the walls. After 24 hours of the (T1) trial for long-term memory test, the same rats were placed in the same arena as they were placed in T1 trial. Choice phase (T2) rats were allowed to explore the open field for 3 minutes in presence of one familiar object (a3) and one novel object (b) (Amber color glass bottle, 12 cm high and 5 cm in diameter). Familiar objects presented similar textures, colors and sizes. During the T1 and T2 trial, explorations of each object (defined as sniffing, licking, chewing or having moving vibrissae whilst directing the nose towards the object at a distance of less than 1 cm) were recorded separately by stopwatch. […] T1 is the total time spent exploring the familiar objects (a1+a2). T2 is the total time spent exploring the familiar object and novel object (a3+b).

[1] = target: recombinant human 5-HT4 receptor (Homo sapiens (Human), UniProt Q13639); assay: Determination of EC50 values for 5-HT4 receptor (CHO cells, pCRE-Luc reporter); type: cell-based; conditions: CHO cells expressing human 5-HT4 receptor, luciferase activity, 4 hours incubation
recombinant human 5-HT4 receptor, sequence (Q13639 whole entry): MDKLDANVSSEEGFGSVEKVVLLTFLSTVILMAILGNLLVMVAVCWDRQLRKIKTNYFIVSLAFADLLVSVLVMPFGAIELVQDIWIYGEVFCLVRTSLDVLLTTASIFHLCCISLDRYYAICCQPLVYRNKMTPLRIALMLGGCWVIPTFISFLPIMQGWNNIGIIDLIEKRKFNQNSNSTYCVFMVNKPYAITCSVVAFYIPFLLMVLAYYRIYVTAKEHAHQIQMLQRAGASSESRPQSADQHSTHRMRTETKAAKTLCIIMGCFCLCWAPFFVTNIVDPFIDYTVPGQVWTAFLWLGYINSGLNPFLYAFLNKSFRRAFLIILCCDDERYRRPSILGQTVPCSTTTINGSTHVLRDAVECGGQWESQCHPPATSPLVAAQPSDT
Description: A stable CHO cell line expressing recombinant human 5-HT4 receptor and pCRE-Luc reporter system was used for cell-based assay. The assay offers a non-radioactive based approach to determine binding of a compound to GPCRs. In this specific assay, the level of intracellular cyclic AMP which is modulated by activation or inhibition of the receptor is measured. The recombinant cells harbor luciferase reporter gene under the control of cAMP response element.
The above cells were grown in 96 well clear bottom white plates in Hams F12 medium containing 10% fetal bovine serum (FBS). Prior to the addition of compounds or standard agonist, cells were serum starved overnight. Increasing concentrations of test compounds were added in OptiMEM medium to the cells. The incubation was continued at 37° C. in CO2 incubator for 4 hours. Medium was removed and cells were washed with phosphate buffered saline. The cells were lysed and luciferase activity was measured in a Luminometer. Luminescence units were plotted against the compound concentrations using Graphpad software.

[2] = Rodent pharmacokinetic study; type: in vivo, Male Wister rats; conditions: plasma, Wistar/Male rat
Description: Three to five animals were housed in each cage. […] Animals were fasted over night before oral dosing (p.o) and food pellets were allowed 2 hours post dosing, whereas intravenous dosing food and water were provided as ad libitum. Three rats were dosed with compounds of formula (I) (10 mg/kg) orally and intravenously (05 mg/kg).
At each time point blood was collected through jugular vein and immediately replenish with an equivalent volume of normal saline from freely moving rats. Collected blood was transferred into a labeled eppendr off containing 10 μL of heparin as anticoagulant. Typically blood samples were collected as following time points: Pre dose, 0.08 (only i.v.), 0.25, 0.5, 1, 2, 4, 6, 8, and 24 hours post dose (n=3). Blood was centrifuged at 4000 rpm for 10 minutes. Plasma was prepared and stored frozen at −20° C. until analysis.
Pharmacokinetic parameters Cmax, Tmax, AUCt, T1/2 and Bioavailability were calculated by non-compartmental model using standard non-compartmental model by using WinNonLin 5.0.1 or Phoenix WinNonlin 6.2 version Software package.

Row | SMILES | EC50 [1] [nM] | further results
1 | Nc1c(Cl)cc(-c2nnc(C3CCN(C4CC4)CC3)o2)c2c1CCCO2.Nc1c(Cl)cc(-c2nnc(C3CCN(C4CC4)CC3)o2)c2c1CCCO2.O=C(O)/C=C/C(=O)O [Example 1, 6-Chloro-8-[5-(1-cyclopropyl-piperidin-4-yl)-[1,3,4]oxadiazol-2-yl]-chroman-5-ylamine hemi fumarate] | 28.5 | Exploration time mean ± S.E.M, Familiar object (Male Wister rats; 3 mg/kg): 5.08 ± 0.1 s; Exploration time mean ± S.E.M, Novel object (Male Wister rats; 3 mg/kg): 13.80 ± 2.20 s; Inference (Male Wister rats; 3 mg/kg): Active
2 | CCOC(=O)N1CCC(N2CCC(c3nnc(-c4cc(Cl)c(N)c5c4OCCO5)o3)CC2)CC1 [Example 6, 4-[5-(8-amino-7-chloro-2,3-dihydrobenzo[1,4]dioxin-5-yl)-[1,3,4]oxadiazol-2-yl]-[1,4′]bipiperidinyl-1′-carboxylic acid ethyl ester oxalate salt] | 4.2 | –
3 | CC(C)n1nc(-c2nnc(CCN3CCCCC3)o2)c2ccccc21 [Example 49, 1-Isopropyl-3-[5-(2-piperidin-1-yl-ethyl)-[1,3,4]oxadiazol-2-yl]-1H-indazole oxalate] | 181 | –
4 | Nc1c(Cl)cc(-c2nnc(C3CCN(C4CCOCC4)CC3)o2)c2c1CCCO2.O=C(O)C(=O)O [Example 25, 6-Chloro-8-{5-[1-(tetrahydro-pyran-4-yl)-piperidin-4-yl]-[1,3,4]oxadiazol-2-yl}-chroman-5-ylamine oxalate salt] | 5.7 | Exploration time mean ± S.E.M, Familiar object (Male Wister rats; 3 mg/kg): 5.93 ± 0.87 s; Exploration time mean ± S.E.M, Novel object (Male Wister rats; 3 mg/kg): 14.70 ± 2.34 s; Inference (Male Wister rats; 3 mg/kg): Active
5 | CC(C)n1nc(-c2nnc(C3CCN(CC4CC4)CC3)o2)c2ccccc21 [Example 39, 3-[5-(1-Cyclopropylmethyl-piperidin-4-yl)-[1,3,4]oxadiazol-2-yl]-1-isopropyl-1H-indazole] | – | AUC(0-t) ([2]; 5 mg/kg, intravenous (bolus)): 1060 ± 163 ng·h/mL; Tmax ([2]; 5 mg/kg, intravenous (bolus)): 4.8 min; half-life ([2]; 5 mg/kg, intravenous (bolus)): 99 ± 28.2 min; AUC(0-t) ([2]; 10 mg/kg, oral (gavage)): 394 ± 174 ng·h/mL; Tmax ([2]; 10 mg/kg, oral (gavage)): 25.2 ± 7.2 min; half-life ([2]; 10 mg/kg, oral (gavage)): 82.8 ± 4.2 min
6 | Nc1c(Cl)cc(-c2nnc(C3CCN(C4CCOCC4)CC3)o2)c2c1CCO2 [Example 7, 5-Chloro-7-{5-[1-(tetrahydropyran-4-yl)piperidin-4-yl]-[1,3,4]oxadiazol-2-yl}-2,3-dihydro benzofuran-4-yl amine oxalate salt] | 7 | –
7 | COCCCN1CCC(c2nnc(-c3nn(C(C)C)c4ccccc34)o2)CC1.O=C(O)C(=O)O [Example 3, 1-isopropyl-3-{5-[1-(3-methoxypropyl)piperidin-4-yl]-[1,3,4]oxadiazol-2-yl}-1H-indazole oxalate salt] | – | Tmax ([2]; 5 mg/kg, intravenous (bolus)): 4.8 min; Tmax ([2]; 10 mg/kg, oral (gavage)): 25.2 ± 7.2 min
8 | Nc1c(Cl)cc(-c2nnc(C3CCN(C4CC4)CC3)o2)c2c1CCO2 [Example 27, 5-Chloro-7-[5-(1-cyclopropyl-piperidin-4-yl)-[1,3,4]oxadiazol-2-yl]-2,3-dihydro-benzofuran-4-ylamine oxalate salt] | 60 | –
9 | Nc1c(Cl)cc(-c2nnc(C3CCN(C4CCC4)CC3)o2)c2c1CCO2 [Example 28, 5-Chloro-7-[5-(1-cyclobutyl-piperidin-4-yl)-[1,3,4]oxadiazol-2-yl]-2,3-dihydro-benzofuran-4-ylamine oxalate salt] | 10 | –
10 | Nc1c(Cl)cc(-c2nnc(C3CCN(CC4CC4)CC3)o2)c2c1CCCO2 [Example 11, 6-Chloro-8-[5-(1-cyclopropylmethyl-piperidin-4-yl)-[1,3,4]oxadiazol-2-yl]-chroman-5-ylamine] | 10.2 | –
11 | Nc1c(Cl)cc(-c2nnc(C3CCN(C4CCCC4)CC3)o2)c2c1CCCO2 [Example 17, 6-Chloro-8-[5-(1-cyclopentyl-piperidin-4-yl)-[1,3,4]oxadiazol-2-yl]-chroman-5-ylamine tartarate salt] | 2.3 | –
12 | Nc1c(Cl)cc(-c2nnc(C3CCN(C4CCOCC4)CC3)o2)c2c1OCCO2 [Example 30, 6-Chloro-8-{5-[1-(tetrahydro-pyran-4-yl)-piperidin-4-yl]-[1,3,4]oxadiazol-2-yl}-2,3-dihydro-benzo[1,4]dioxin-5-ylamine oxalate salt] | 7.3 | –
13 | Nc1c(Cl)cc(-c2nnc(C3CCN(CC4CCC4)CC3)o2)c2c1CCCO2 [Example 10, 6-Chloro-8-[5-(1-cyclobutylmethyl-piperidin-4-yl)-[1,3,4]oxadiazol-2-yl]-chroman-5-ylamine] | 5.7 | –

The next lines start with results.

Row | EC50 [1] [nM] | SMILES | further results
14 | 6.2 | Nc1c(Cl)cc(-c2nnc(C3CCN(CC4CCC4)CC3)o2)c2c1OCCO2 [Example 15, 6-Chloro-8-[5-(1-cyclobutylmethyl-piperidin-4-yl)-[1,3,4]oxadiazol-2-yl]-2,3-dihydro-benzo[1,4]dioxin-5-ylamine] | Exploration time mean ± S.E.M, Familiar object (Male Wister rats; 1 mg/kg): 12.03 ± 1.73 s; Exploration time mean ± S.E.M, Novel object (Male Wister rats; 1 mg/kg): 19.14 ± 3.02 s; Inference (Male Wister rats; 1 mg/kg): Active
15 | 5 | CCOC(=O)N1CCC(N2CCC(c3nnc(-c4cc(Cl)c(N)c5c4OCC5)o3)CC2)CC1 [Example 34, 4-[5-(4-Amino-5-chloro-2,3-dihydro-benzofuran-7-yl)-[1,3,4]oxadiazol-2-yl]-[1,4′]bipiperidinyl-1′-carboxylic acid ethyl ester oxalate] | –
16 | 48 | CC(C)N1CC2C(C1)C2c1nnc(-c2cc(Cl)c(N)c3c2OCCC3)o1 (stereo not drawn) [Example 22, 6-Chloro-8-[5-(3-isopropyl-3-aza-bicyclo[3.1.0]hex-6-yl)-[1,3,4]oxadiazol-2-yl]-chroman-5-ylamine oxalate salt] | –
17 | 25 | Nc1c(Cl)cc(-c2nnc(C3C4CN(CC5CC5)CC43)o2)c2c1CCCO2 (stereo not drawn) [Example 24, 6-Chloro-8-[5-(3-cyclopropylmethyl-3-aza-bicyclo[3.1.0]hex-6-yl)-[1,3,4]oxadiazol-2-yl]-chroman-5-ylamine] | –
18 | 21.5 | Nc1c(Cl)cc(-c2nnc(C3CCN(C4CC4)CC3)o2)c2c1OCCO2 [Example 29, 6-Chloro-8-[5-(1-cyclopropyl-piperidin-4-yl)-[1,3,4]oxadiazol-2-yl]-2,3-dihydro-benzo[1,4]dioxin-5-ylamine oxalate salt] | –
19 | 53 | Nc1c(Cl)cc(-c2nnc(CCN3CCCCC3)o2)c2c1CCCO2 [Example 18, 6-Chloro-8-[5-(2-piperidin-1-yl-ethyl)-[1,3,4]oxadiazol-2-yl]-chroman-5-ylamine] | –
20 | 20 | Nc1c(Cl)cc(-c2nnc(C3C4CN(CC5CCC5)CC43)o2)c2c1CCCO2 (stereo not drawn) [Example 23, 6-Chloro-8-[5-(3-cyclobutylmethyl-3-aza-bicyclo[3.1.0]hex-6-yl)-[1,3,4]oxadiazol-2-yl]-chroman-5-ylamine oxalate salt] | –
21 | 21 | Nc1c(Cl)cc(-c2nnc(C3CCN(CC4CCOCC4)CC3)o2)c2c1CCO2 [Example 33, 5-Chloro-7-{5-[1-(tetrahydro-pyran-4-ylmethyl)-piperidin-4-yl]-[1,3,4]oxadiazol-2-yl}-2,3-dihydro-benzofuran-4-ylamine oxalate] | –
22 | 15.3 | CC(C)N1CCC(c2nnc(-c3cc(Cl)c(N)c4c3OCCC4)o2)CC1 [Example 12, 6-Chloro-8-[5-(1-isopropyl-piperidin-4-yl)-[1,3,4]oxadiazol-2-yl]-chroman-5-ylamine] | –
23 | 16.9 | COCCCN1CCC(c2nnc(-c3cc(Cl)c(N)c4c3OCCO4)o2)CC1 [Example 31, 6-Chloro-8-{5-[1-(3-methoxy-propyl)-piperidin-4-yl]-[1,3,4]oxadiazol-2-yl}-2,3-dihydro-benzo[1,4]dioxin-5-ylamine oxalate salt] | –
24 | 20.4 | COCCCN1CCC(c2nnc(-c3cc(Cl)c(N)c4c3OCCC4)o2)CC1 [Example 13, 6-Chloro-8-{5-[1-(3-methoxy-propyl)-piperidin-4-yl]-[1,3,4]oxadiazol-2-yl}-chroman-5-ylamine] | –
